One series has as its system participants. Also on record: method as in PMID 19398602. The settings on record: 300 mg dose; cited from earlier work.
For another series, the system named is primates. Further details: method as in PMID 19318684. The settings on record: 50 mg/kg/day p.o., returned to baseline at day 7; cited from earlier work.
A further series relates to hamsters. Also on record: method as in PMID 19318684. The note with it: cited from earlier work.
Series [1] concerns the target T1, LXRβ (Homo sapiens, UniProt P55055).
T1 sequence (P55055 222-460 limits assumed): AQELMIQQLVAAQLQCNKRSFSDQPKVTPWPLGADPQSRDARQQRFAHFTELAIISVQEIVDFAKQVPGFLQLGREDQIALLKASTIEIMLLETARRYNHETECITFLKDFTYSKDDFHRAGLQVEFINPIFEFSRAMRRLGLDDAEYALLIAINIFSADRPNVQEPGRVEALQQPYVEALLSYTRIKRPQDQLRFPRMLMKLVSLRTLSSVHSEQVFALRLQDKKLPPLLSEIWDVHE

The conditions of series [2]: cited from earlier work.
Series [3] deals with mouse model of non-alcoholic steatohepatitis (NASH). The note with it: cited from earlier work.
Series [4] deals with SRE promoter luciferase (SRE-luc) in HepG2 cells. Nature of the series: SRE-luc reporter in HepG2 cells. It is filed as cell-based, human. The note with it: for SRE-luc response: HepG2, normalized to T0. The source says:
Our phenotypic high throughput screen (HTS) approach to identify nonlipogenic ABCA1 Inducers (NLAI) originally used counterscreening with a SREBP1c-luciferase reporter (linked to the SREBF1 gene promoter) in human hepatocarcinoma HepG2 cells.[81] Unwanted lipogenesis is mediated by LXR agonists via direct transcriptional activation and indirectly by the effects of SREBP1c.[57] [109] SREBP1c enhances transcription of genes required for synthesis of fatty acids and TG and as the dominant isoform in liver is associated most closely with lipogenesis and TG elevation.[109] […] Binding of SREBP1c to the sterol response element (SRE) induces transcription of lipogenic genes associated with elevated TG. To better model the lipogenic axis in hepatocytes, we use HepG2 cells stably transfected with a luciferase reporter downstream of a SRE promoter (SRE-luc), activation of which requires SREBP1c maturation.
HepG2 cells were cotransfected with SRE (LDLR)-NlucP SuperPiggyBac Transposon and a separate Transposase plasmid (System Biosciences). Cells were expanded for multiple passages followed by selection with puromycin (1ug/ml). Stable cells constitutively express GFP allowed for FACS enrichment and/or cell cloning. Initially, stable pools were compared to low expressing and high expressing enriched pools. The optimal pool was selected based on assay performance (Z’) and was grown and maintained as above, with the addition of 1.0 μg/mL of puromycin biweekly.

Series [5] relates to ABCA1-promoter luciferase in CCF-STTG1 cells. Nature of the series: ABCA1-luc reporter in CCF-STTG1 astrocytoma cells. It is filed as cell-based, human. The source says: Astrocytoma CCF-STTG1 cells, stably transfected with an ABCA1-promoter linked to a luciferase response element provide a model for ABCA1 induction in astrocytes.[81] […] Apparent inverse agonist activity in cell-based assays can result from true inverse agonist recruitment of corepressors or from antagonist activity towards endogenous sterol LXR agonists. Although we use serum stripped media, antagonism of endogenous LXR agonists cannot be ruled out.
Low passage CCF-STTG1 cells (20,000 cells/well) were seeded in 96-well plates in media containing charcoal-stripped FBS and incubated at 37 °C and 5% CO2 for 24 hours prior to a 24-hour treatment. All compounds were dissolved in DMSO, and final DMSO concentrations never exceeded 1%. After a 24-hour incubation period, add a volume of ONE-GLO™EX Reagent that is equal to the volume of culture medium in each well and incubate for 3 to 5 minutes on the shaker. The luminescent activity of compounds ([…], 10-fold dilution) was examined using the ONE-GLO™EX assay (Promega). The data was normalized to DMSO. The assays were performed in duplicates for each concentration, and the EC50 values were determined from non-linear regression analysis of the dose-response curve generated in GraphPad Prism 9.

Series [6] has as its target T2, LXRα (Homo sapiens, UniProt Q13133).
T2 sequence (Q13133 209-447 limits assumed): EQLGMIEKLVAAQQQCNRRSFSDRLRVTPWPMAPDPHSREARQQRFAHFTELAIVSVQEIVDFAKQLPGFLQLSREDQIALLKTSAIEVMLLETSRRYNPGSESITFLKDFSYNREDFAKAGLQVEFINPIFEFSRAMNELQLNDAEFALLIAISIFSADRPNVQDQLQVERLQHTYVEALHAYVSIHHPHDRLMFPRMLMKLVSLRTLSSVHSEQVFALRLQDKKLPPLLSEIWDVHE
The settings on record: for SRC-1 recruitment to LXRα, efficacy relative to T0: ligand alone, normalized to T0 (100%).

In series [7] the test system is SREBF1, FAS, and SCD1 in HepG2 cells. Nature of the series: RT-PCR of lipogenic genes in HepG2 cells. The class given is cell-based, human. The settings on record: HepG2, 24 hours. How it is done: Owing to the anomalous response in the reporter assay, we measured lipogenic genes, SREBF1, FAS, and SCD1 by RT-PCR in HepG2 cells in response to treatment with the biphenyl sulfones (Figs 5G–I).
HepG2 cells were seeded in 12-well plates and treated with compounds for 24 hours. Following treatment, cells were washed once with PBS and then lysed in 350 μL of RLT buffer (Qiagen). Lysates were immediately frozen at −80 °C until RNA extraction. Total RNA was extracted using RNeasy Plus Mini columns (Qiagen) according to the manufacturer’s instructions. RNA concentration and purity were assessed using the A260/A280 ratio measured on a Synergy Neo2 plate reader (BioTek). For cDNA synthesis, 2 μg of total RNA was reverse transcribed using SuperScript III reverse transcriptase (Invitrogen), oligo(dT)12–18 primers, and dNTP mix, following the manufacturer’s protocol. Quantitative PCR was performed using TaqMan Gene Expression Master Mix (Invitrogen) with 2 μL of cDNA and gene-specific TaqMan probes in a 20 μL reaction volume per well. The following TaqMan assays were used: ABCA1: Hs01059101_m1, SREBF1: Hs01088691_m1, SCD: Hs01682761_m1, FASN: Hs01005622_m1, and HPRT1 (endogenous control): Hs02800695_m1. qPCR was performed on a StepOne Real-Time PCR System (Applied Biosystems), and gene expression was quantified using the ΔΔCt method.

In a further series the test system is obese mice on HFD. The note with it: cited from earlier work.
For series [8], the target named is T1, LXRβ. The series is described as follows: Corepressor (NCOR2, SMRT2) binding CRT, LXRβ. The settings on record: absence of coactivator.
The target of series [9] is T2, LXRα. Nature of the series: Corepressor (NCOR2, SMRT2) binding CRT, LXRα. The note with it: absence of coactivator.
For another series, the system named is LXR. Nature of the series: CRT signature categorization, heat map of response at 1 μM. The class given is biochemical. The note with it: signatures of Table 1. From the text: With the knowledge that corepressors bind to the apo-receptor; whereas coactivator binding requires a ligand-induced conformational change, we can categorize all ligands using their CRT profiles: ligands induce 3 conformations with CoR (destabilizing D, stabilizing S, neutral N) and only 2 conformations with CoA (stabilizing S, neutral N) (Table 1).
To determine which LXR ligands fit with these theoretical CRT signatures, concentration-response curves were interpolated to measure normalized response at 1 μM ligand concentration and plotted as a heat map (Figs 9A, S8).
The CRT signatures of the three agonist and three antagonist classifications were modelled in the same heat map using signatures defined in Table 1 and the measured responses to the real LXR ligands in our study.

For series [10], the system named is high-fat diet (HFD) mouse model. The settings on record: cited from earlier work.
For series [11], the target named is T2, LXRα.
Series [12] deals with T1, LXRβ. Nature of the series: Multiplex precision CRT (pCRT), SRC1 and NCoR2, LXRβ. Also on record: NR-LBD with short coregulator peptides as used in the present work; purchased Thermo Fisher Scientific PV4660. The note with it: SRC1-btn 200 nM, NCoR2-FL 200 nM. The class given is biochemical.
Another series has as its system mice. The note with it: highest dose 30 mg/kg qd; cited from earlier work.
The test system of another series is E3/4FAD mice. The settings on record: cited from earlier work.
Series [13] deals with ABCA1, SREBP1c, cholesterol efflux, IL-6 in cell cultures. The settings on record: cited from earlier work.

Entries after “also recorded” stand apart in the source; their conditions may differ.

In the case of `Fc1ccc(-c2c3cccc(C(F)(F)F)c3nn2Cc2ccc(F)cc2Cl)cc1` [LXR-623], the Adverse effects result with participants is reported as “all 6 participants on the highest 300 mg dose reported neurologic or psychiatric adverse effects”. In addition, in the series with primates, the “Liver TG” value was “significant increase in liver TG was observed but only at high dose”. For the same compound, in the series with hamsters, the “Plasma TG” value is “did not cause a dose-dependent increase in plasma TG”.
On to `CCOC(=O)c1ccc(CN(Cc2ccc(-c3cccc(S(C)(=O)=O)c3)cc2)S(=O)(=O)c2c(C)cc(C)cc2C)o1` [SR9238], for which the “Effect on 24HC agonism at LXRβ” value at LXRβ [1] (in the presence of 24HC (3 μM)) is on record as “antagonized the agonism of 24HC at LXRβ”. In addition, at LXRβ [1] (ligand alone, normalized to T0 (100%)), the “SRC-1 recruitment to LXRβ, efficacy/potency relative to T0” value is given as “neither ligand stabilized the LXR:SRC1 complex alone”. The “Metabolic lability / systemic availability” value in series [2] is reported as “metabolically labile”. For the same compound, the “Hepatic inflammation and fibrosis” value in series [3] was “significantly reduced hepatic inflammation and fibrosis”. The “SRE-luc response” value in series [4] is listed as “anomalous activation of SRE at concentrations above 1 μM; also recorded: lowered SRE activation below baseline; also recorded: neutral or antagonist response; also recorded: inverse agonist at < 3 μM concentration”. The “ABCA1-luc response” value in [5] (24 hr incubation, normalized to T0 (100%)) was “inverse agonist activity in cells”. Also, the “Effect on 24HC agonism at LXRα” value on LXRα [6] (in the presence of 24HC (3 μM)) is given as “without effect on LXRα”. The “SRC-1 recruitment to LXRα, efficacy relative to T0” value on LXRα [6] is “neither ligand stabilized the LXR:SRC1 complex alone”. In series [7], the “Lipogenic gene transcription (SREBF1, FAS, SCD1) by RT-PCR” value is listed as “reducing lipogenic gene transcription below baseline”. For the same compound, in the series on obese mice on HFD, the “Plasma TG” value is recorded as “plasma TG was suppressed”. The “Corepressor (NCOR2 and SMRT2) binding to LXRβ, ligand effect” value on LXRβ [8] is “strong agonist responses”. Further, the “Corepressor (NCOR2 and SMRT2) binding to LXRα, ligand effect” value (“Corepressor … to LXRα, ligand effect” below) on LXRα [9] is given as “strong agonist responses”. Moreover, the CRT signature category result in the series with LXR is “IA (inverse agonist (IA))”.
The EC50 is the concentration giving half of the maximal effect. On to `CCOC(=O)c1cccc(NC(=O)c2sc(Cl)cc2S(=O)(=O)N(C)c2ccc(OCC)c(OCC)c2)c1` [CL2–57], for which the EC50 in series [4] (Homo sapiens, HepG2 SRE-luc, read-out: EC50, SRE activation) was 2800 nM. Further, the “Plasma and hepatic TG levels” value in series [10] was “attenuated diet-induced increases in plasma and hepatic TG levels”. At LXRα [11], the “Recruitment of coactivator TRAP220 to LXRα” value is reported as “very minimal recruitment”.
On to `CC(C)(O)c1cn(-c2ccc(-c3cccc(S(C)(=O)=O)c3)cc2)c(C(C)(C)c2ccccc2Cl)n1` [XL652], for which, on LXRβ [12], the “NCOR2 displacement from LXRβ in the presence of SRC1 (pCRT)” value is given as “fully displaced”. The “SRE-luc response” value in series [4] is given as “anomalous activation of SRE at concentrations above 1 μM; also recorded: little or no activation of SRE at submicromolar concentrations”. Further, the “Efficacy of SRE activation” value in series [4] (concentrations ≤ 1 μM) is on record as 20–25 % of T0. Besides, the “Weaker potency for ABCA1 induction compared to XL041” value in [5] (versus XL041) was “more than 100 fold”. Besides, the “Recruitment of coactivator TRAP220 to LXRα” value on LXRα [11] was “very minimal recruitment”. For the same compound, on LXRβ [8], the “NCOR2 binding to LXRβ, ligand effect” value is “weakly destabilized the NCOR2 complex with both LXR isoforms” and the “SMRT2 binding to LXRβ, ligand effect” value is “did not perturb SMRT2 binding to LXRβ”. Moreover, the Plasma triglycerides result in the series with mice is reported as “elevated plasma triglycerides only at the highest dose”. Besides, on LXRα [9], the “Corepressor … to LXRα, ligand effect” value was “strongly stabilized the corepressor-bound conformation”; the “SMRT2 binding to LXRα, ligand effect” value is recorded as “stabilization of SMRT2 corepressor binding to LXRα”.
For the compound `CCOC(=O)c1cc(Cl)cc(NC(=O)c2sc(Cl)cc2S(=O)(=O)N(C)c2ccc(OCC)c(OC)c2)c1` [CL3–3], on LXRα [11], the “Recruitment of coactivator TRAP220 to LXRα” value was “very minimal recruitment”. The “SRC-1 recruitment to LXRα, efficacy relative to T0” value at LXRα [6] is given as “partial agonist activity at LXRα”. Also, the “ABCA1 expression, APOE lipidation, AD phenotypes, TG” value with E3/4FAD mice is “increased ABCA1 expression, enhanced APOE lipidation and reversed multiple AD phenotypes, without increasing TG”.
By Emax is commonly meant the maximal effect, on the per cent scale that the assay sets. For the compound `COc1ccc(NC2=C(c3ccccc3)C(=O)N(Cc3ccccc3)C2=O)cc1` [GSK3987], the “LXR isoform selectivity, SRC-1 recruitment” value at LXRβ [1] (LXRβ versus LXRα) is on record as “weakly selective for LXRβ”. Also, the Emax in series [4] (Homo sapiens, HepG2, read-out: Maximal efficacy (Emax), SRE activation) turned out to be 150%. Besides, the “ABCA1, SREBP1c, cholesterol efflux and IL-6 in cell cultures” value in series [13] is “concentration-dependent increases in ABCA1, SREBP1c, and cholesterol efflux and concentration-dependent decreases in IL-6”. The “Corepressor (NCOR2 and SMRT2) binding to LXRβ, ligand effect” value on LXRβ [8] was “strong agonist responses”. Moreover, the “Corepressor … to LXRα, ligand effect” value at LXRα [9] is on record as “strong agonist responses”. Besides, the CRT signature category entry with LXR is reported as “FA (full agonist (FA))”.

The values are drawn from publication doi:10.1101/2025.09.12.675753, “In search of nonlipogenic ABCA1 inducers (NLAI): precision coregulator TR-FRET identifies diverse signatures for LXR ligands” (bioRxiv, 2025).
